The results in this text go back to patent publication US11241500B2, “HSP90-targeting conjugates and formulations thereof” (TARVEDA THERAPEUTICS, INC., priority 2016, dated 2022).

Data set [1] concerns NCI-H460 (human non-small cell lung carcinoma). Description: PI3K viability assay, NCI-H460 cells. The class given is cell-based. Here is the method: (§1) PI3K viability assays were carried out on the payloads and conjugates. HCT-116 (human colon carcinoma), NCI-H460 (human non-small cell lung carcinoma), and NCI-H1048 (small cell lung cancer) cells were treated with conjugates and payloads for 4 hours. After 4 hours, compounds were washed out and cells assayed for viability 72 hrs post wash out.

Data set [2] relates to NCI-H1048 (small cell lung cancer). Description: PI3K viability assay, NCI-H1048 cells. The class given is cell-based. The following applies: Homo sapiens. Here is the method: as §1
Data set [3] has as its system HCT-116 (human colon carcinoma). The data set is described as follows: PI3K viability assay, HCT-116 cells. The class given is cell-based. Here is the method:
as §1

A short description of data set [4]: Stability of PARP inhibiting (olaparib) conjugates in plasma and tumor tissue, release of olaparib. The class given is in vitro ADME. The following applies: for Release of olaparib in plasma and tumor: plasma and tumor tissues, FIG. 1A-E. Here is the method: Stabilities of conjugates comprising PARP inhibitor olaparib and HSP90 binding moieties were studied and the conversions of the conjugates to Olaparib were monitored.
In one study, concentrations of Compounds 4, 5, 6 and olaparib released from them in plasma and tumor tissue were monitored (FIG. 1A, FIG. 1B, and FIG. 1C). The linkers were cleaved to release olaparib, thus concentrations of olaparib increased over time. Half times of Compounds 4, 5, and 6 were calculated. […]

Data set [5] deals with HCT-116, NCI-H460, and NCI-H1048 cells. Description: PI3K viability assays, summary over the three cell lines. The class given is cell-based, human. The following applies: 4 hours treatment, viability 72 hrs post wash out. The procedure: as §1
Data set [6] can be described thus: Stability of PI3K inhibiting conjugates at 37° C. in plasma and tumor homogenates. The source says:
Stabilities of conjugates comprising PI3K inhibitors and HSP90 binding moieties were studied.

Data set [7] deals with Caspase-9. Description: PI3K Caspase-9 assay with HCT-116 cells. The data set is classed as cell-based, human. Particulars: 4 hour treatment, assayed 24, 48, 72 hrs. The procedure: Caspase-9 is activated during apoptosis and is an indicator of apoptosis and cytokine processing. PI3K Caspase-9 assay was conducted with HCT-116 cells. HCT-116 cells were treated with conjugates and payloads for 4 hours. After 4 hours, compounds were washed out and cells were assayed for Caspase-9 24, 48, 72, and 144 hrs. Untreated cells were not viable at 144 hrs. Caspase-9 levels 24 hours, 48 hours, and 72 hours after 4 hour treatment with Compound 10, Compound 12, Compound 13, PF-0461502, Compound 11, T-1634, and BAY80-6946 were shown in FIG. 3.

Data set [8] is described as follows: In vivo tumor PK study, HCT116 colon cancer tumor line mouse model. Particulars: single dose at 0 hours, FIG. 4. The procedure:
A tumor PK study was conducted with HSP90-binding conjugate Compound 12 in a HCT116 colon cancer tumor line mouse model. The payload on Compound 12 is the PI3K inhibitor PI-103. Both PI-103 and Compound 12 were given as a single dose at 0 hours to separate groups of mice and their concentrations in tumors were collected over time.

Data set [9] can be described thus: In vivo tumor PK study, MDA-MB-231 breast cancer tumor line mouse model. Here is the method: A tumor PK study was conducted with HSP90-binding conjugate Compound 12 in a MDA-MB-231 breast cancer tumor line mouse model. The payload on Compound 12 is the PI3K inhibitor PI-103. Both PI-103 and Compound 12 were given as a single dose at 0 hours to separate groups of mice and their concentrations in tumors were collected over time.

Where [10] appears, read: NCI-H460, 4 hours treatment, wash out, viability 72 hrs post wash out, Run 1, read-out: IC50 NCI-H460 Run 1.
Where [11] appears, read: NCI-H1048, 4 hours treatment, wash out, viability 72 hrs post wash out, Run 1, read-out: IC50 NCI-H1048 Run 1.
[12] abbreviates: HCT-116, 4 hours treatment, wash out, viability 72 hrs post wash out, Run 1, read-out: IC50 HCT-116 Run 1.
[13] abbreviates: plasma, Table 1, read-out: Plasma t1/2 (converted).
Setting [14] is: tumor tissue, Table 1, read-out: Tumor t1/2 (converted).
[15] abbreviates: plasma, Table 3, read-out: Plasma t1/2 (converted).
[16] abbreviates: tumor tissue, Table 3, read-out: Tumor t1/2 (converted).
[17] abbreviates: NCI-H1048, 4 hours treatment, wash out, viability 72 hrs post wash out, Run 2, read-out: IC50 NCI-H1048 Run 2.
[18] abbreviates: HCT-116, 4 hours treatment, wash out, viability 72 hrs post wash out, Run 2, read-out: IC50 HCT-116 Run 2.
[19] abbreviates: NCI-H460, 4 hours treatment, wash out, viability 72 hrs post wash out, Run 2, read-out: IC50 NCI-H460 Run 2.
Where [20] appears, read: NCI-H460, read-out: IC50 NCI-H460 Run 2.
[21] abbreviates: NCI-H1048, read-out: IC50 NCI-H1048 Run 2.
The mark [22] stands for this setting: HCT-116, read-out: IC50 HCT-116 Run 2.

Read-outs that look alike come from different tables or passages of the source.

Turning to `COc1c(OCCCN2CCOCC2)ccc2c1N=C(NC(=O)c1cnc(N)nc1)N1CCN=C21` [BAY80-6946, Copanlisib, reference compound], the IC50 in [1] (setting [10]) amounted to 0.62 µM; in [2] (setting [11]), 0.13 µM; in data set [3] (setting [12]) it was 3.42 µM.
With `CC(C)c1cc(-c2nnc(O)n2-c2ccc3c(ccn3CCC3CCN(CCC(C)(C)SSCCOC(=O)NCn4nc(Cc5ccc(F)c(C(=O)N6CCN(C(=O)C7CC7)CC6)c5)c5ccccc5c4=O)CC3)c2)c(O)cc1O` [Compound 4], in [4], the “Release of olaparib in plasma and tumor” value is “release olaparib in plasma and tumor”. Moreover, the half-life in [4] (setting [13]) was 4.5 h; in [4] (setting [14]) it was 0.64 h.
For `CC(C)c1cc(-c2nnc(O)n2-c2ccc3c(ccn3CCC3CCN(CCC(C)(C)SSCCOC(=O)N(CCN(C)C)Cn4nc(Cc5ccc(F)c(C(=O)N6CCN(C(=O)C7CC7)CC6)c5)c5ccccc5c4=O)CC3)c2)c(O)cc1O` [Compound 5], in [4] (plasma and tumor), the “Relative stability in plasma and tumor” value is “more stable than Compound 4 and Compound 6 in both plasma and tumor”. Moreover, in data set [4], the “Release of olaparib in plasma and tumor” value is “release olaparib in plasma and tumor”. The half-life in data set [4] (setting [13]) is 35 h; in [4] (setting [14]), 4.5 h.
On to `CC(C)c1cc(-c2nnc(O)n2-c2ccc3c(ccn3CCC3CCN(CCCSSCCOC(=O)N(CCN(C)C)Cn4nc(Cc5ccc(F)c(C(=O)N6CCN(C(=O)C7CC7)CC6)c5)c5ccccc5c4=O)CC3)c2)c(O)cc1O` [Compound 6], for which, in data set [4], the “Release of olaparib in plasma and tumor” value is “release olaparib in plasma and tumor”. Also, the half-life was 4.8 h in data set [4] (setting [13]) and 0.27 h in data set [4] (setting [14]).
Regarding `CC(C)c1cc(-c2nnc(O)n2-c2ccc(CN3CCN(CCC(C)(C)SSCCOC(=O)N(CCN(C)C)Cn4nc(Cc5ccc(F)c(C(=O)N6CCN(C(=O)C7CC7)CC6)c5)c5ccccc5c4=O)CC3)cc2)c(O)cc1O` [Compound 7], in [4], the “Release of olaparib in plasma and tumor” value was “release olaparib in plasma and tumor”. Further, the half-life is 43 h in [4] (setting [15]) and 4 h in data set [4] (setting [16]).
`CC(C)c1cc(-c2nnc(O)n2-c2ccc(CN3CCN(CCC(C)(C)SSc4ccc(COC(=O)N(CCN(C)C)Cn5nc(Cc6ccc(F)c(C(=O)N7CCN(C(=O)C8CC8)CC7)c6)c6ccccc6c5=O)cc4)CC3)cc2)c(O)cc1O` [Compound 8]: the “Release of olaparib in plasma and tumor” value in data set [4] was “release olaparib in plasma and tumor”. Moreover, the half-life in [4] (setting [15]) was 46 h; in data set [4] (setting [16]), 24 h.
Consider `CC(C)c1cc(-c2nnc(O)n2-c2ccc3c(ccn3CCC3CCN(C(=O)Oc4cccc(-c5nc(N6CCOCC6)c6oc7ncccc7c6n5)c4)CC3)c2)c(O)cc1O` [Compound 10], for which the IC50 in [1] (setting [10]) was approximately 3220 µM; in [2] (setting [11]), 40.4 µM; in data set [2] (setting [17]), approximately 9160 µM; in data set [3] (setting [18]), approximately 15500 µM. For the same compound, the “Activity in viability assays relative to payload” value in [5] is listed as “appeared to lose activity”. The “Stability in plasma versus tumor homogenates” value in [6] (37° C.) is on record as “less stable in plasma than in tumor homogenates”. For the same compound, the “Cleavage of carbamate groups” value in data set [6] (plasma) was “cleaved in plasma by carboxylesterase”. For the same compound, the Caspase-9 signal entry in data set [7] is recorded as “Lack or decrease in signal”.
Turning to `COc1ccc(-c2cc3c(C)nc(N)nc3n([C@H]3CC[C@H](OCCOC(=O)N4CCC(CCn5ccc6cc(-n7c(O)nnc7-c7cc(C(C)C)c(O)cc7O)ccc65)CC4)CC3)c2=O)cn1` [Compound 11], the IC50 in data set [1] (setting [10]) was 3.64 µM; in data set [1] (setting [19]) it was 3.66 µM; in [2] (setting [11]), 1.77 µM; in data set [2] (setting [17]), 1.99 µM; in [3] (setting [12]), 10.2 µM; in data set [3] (setting [18]), 5.59 µM. Moreover, the “Cleavage of carbamate groups” value in data set [6] is “cleaved in plasma by carboxylesterase”. Further, the “Stability in plasma versus tumor homogenates” value in data set [6] is given as “less stable in plasma than in tumor homogenates”.
Consider `CC(C)c1cc(-c2nnc(O)n2-c2ccc(CN3CCN(C(=O)Oc4cccc(-c5nc(N6CCOCC6)c6oc7ncccc7c6n5)c4)CC3)cc2)c(O)cc1O` [Compound 12], for which the IC50 in data set [1] (setting [20]) came to 1.95 µM; in [2] (setting [21]) it was 1.27 µM; in [3] (setting [22]), 3.94 µM. Further, the “Concentrations in tumors over time” value in data set [8] is “accumulation of the conjugate, retention of the conjugate and sustained release of the payload over time”; in [9] (single dose at 0 hours, MDA-MB-231 tumor, FIG. 5) it was “accumulation of the conjugate, retention of the conjugate and sustained release of the payload over time”. Besides, the “Activity in viability assays relative to payload” value in data set [5] is given as “retained activity similar to PI-103 payload”. In addition, the Caspase-9 signal result in data set [7] was “appears to retain activity similar to payload (PI-103) and ligand (ganetespib)”.
Consider `CC(C)c1cc(-c2nnc(O)n2-c2ccc(CN3CCN(C(=O)NC(CSSCCNC(=O)Oc4cccc(-c5nc(N6CCOCC6)c6oc7ncccc7c6n5)c4)C(N)=O)CC3)cc2)c(O)cc1O` (stereo not drawn) [Compound 13], for which the figures for the IC50 in data set [1] (setting [20]), in [2] (setting [21]) and in data set [3] (setting [22]) were 8.2 µM, 2.9 µM and 10.7 µM, respectively. Moreover, in [5], the “Activity in viability assays relative to payload” value is on record as “retained activity similar to PI-103 payload”. In addition, the Caspase-9 signal result in [7] is on record as “Lack or decrease in signal”.
Regarding `COc1ncc(-c2ccc3nccc(-c4ccnnc4)c3c2)cc1NS(=O)(=O)c1ccc(F)cc1F` [GSK-2126458, Omipalisib, reference compound], the concentration for half-maximal inhibition (IC50) in data set [1] (setting [10]) is 0.19 µM; in data set [2] (setting [11]) it was 0.21 µM; in [3] (setting [12]), 1.5 µM.
On to `COc1ccc(-c2cc3c(C)nc(N)nc3n([C@H]3CC[C@H](OCCO)CC3)c2=O)cn1` [PF-04691502, reference compound], for which the half-inhibitory concentration (IC50) in data set [1] (setting [10]) is 8.98 µM; in data set [1] (setting [19]) it was 3.53 µM; in data set [2] (setting [11]), 3.36 µM; in [2] (setting [17]), 2.63 µM; in data set [3] (setting [12]), 45.4 µM; in data set [3] (setting [18]) it was 11.3 µM.
For `Oc1cccc(-c2nc(N3CCOCC3)c3oc4ncccc4c3n2)c1` [PI-103, reference compound], the IC50 in data set [1] (setting [10]) is 2.85 µM; in data set [1] (setting [19]), 4.34 µM; in data set [2] (setting [11]), 1.94 µM; in data set [2] (setting [17]) it was 2.5 µM; in data set [3] (setting [12]), approximately 16500 µM. Besides, the “Concentrations in tumors over time” value in [8] was “detected at 1 hour and then fell below limit of detection”; in data set [9] (mouse, in vivo) it was “detected at 1 hour and then fell to a low level at 24 h”.
